Assay results published in ChEMBL document CHEMBL1201862, “PubChem BioAssay data set” (2004).
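Grown in 96-well plates, cells were treated for 48 hours with each compound at five concentrations. Insufficient inhibition: endpoint recorded as highest concentration tested. GI50: concentration for 50% inhibition of growth.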 Activity calls are given as the source filed them. Cut-off read from the data, not from the text of the source: active = GI50 up to about 1.1 µM and inactive = higher.

Columns and labels:
Assay in all cases: NCI anticancer screen, dose series, 48 h
Hs-578T = system: Hs-578T
U-251 = system: U-251
SF-539 = system: SF-539
NCI-H226 = system: NCI-H226
NCI-H23 = system: NCI-H23
A498 = system: A498
RPMI-8226 = system: RPMI-8226
RXF 393 = system: RXF 393
MDA-MB-435 = system: MDA-MB-435
786-0 = system: 786-0
HL-60 = system: HL-60
KM12 = system: KM12
HCC 2998 = system: HCC 2998
MDA-MB-231 = system: MDA-MB-231
ACHN = system: ACHN
IGROV-1 = system: IGROV-1
PC-3 = system: PC-3
OVCAR-5 = system: OVCAR-5
SNB-19 = system: SNB-19
Malme-3M = system: Malme-3M

Measured: GI50

COc1cc2c(C)cc(O)cc2c2cc(O)c(C)cc12
inactive: Hs-578T 19.1 µM | U-251 11.2 µM | SF-539 9.14 µM | NCI-H226 13.5 µM | NCI-H23 11.5 µM | A498 11.2 µM | RPMI-8226 1.91 µM | RXF 393 12.4 µM | MDA-MB-435 9.75 µM | 786-0 8.43 µM | HL-60 2.96 µM | KM12 5.24 µM | HCC 2998 13.5 µM | MDA-MB-231 9.66 µM | ACHN 12.4 µM | IGROV-1 14.1 µM | PC-3 9.57 µM | OVCAR-5 13.7 µM | SNB-19 11.5 µM

CN1CC2=C(N=C(S)NC2c2ccccc2Cl)/C(=C/c2ccccc2Cl)C1 (configuration not stated)
inactive: Hs-578T > 100 µM | U-251 80.5 µM | SF-539 73.6 µM | NCI-H226 52.7 µM | Malme-3M 25.9 µM | NCI-H23 43.2 µM | A498 77.3 µM | RXF 393 > 100 µM | MDA-MB-435 28.8 µM | 786-0 > 100 µM | HL-60 21.8 µM | KM12 56.1 µM | HCC 2998 > 100 µM | MDA-MB-231 26.2 µM | ACHN 25.1 µM | IGROV-1 53.7 µM | PC-3 26.5 µM | OVCAR-5 > 100 µM | SNB-19 > 100 µM

COc1cc([C@@H]2c3cc4c(cc3[C@@H](c3c(O)cc(O)c5c3O[C@H](c3ccc(O)c(O)c3)[C@@H](O)C5)[C@H]3COC(=O)[C@H]23)OCO4)cc(OC)c1OC
inactive: Hs-578T 34 µM | U-251 1.69 µM | SF-539 17.6 µM | Malme-3M > 100 µM | NCI-H23 78 µM | A498 1.6 µM | RPMI-8226 19.6 µM | RXF 393 1.71 µM | MDA-MB-435 1.75 µM | 786-0 24 µM | HL-60 38.8 µM | KM12 1.76 µM | HCC 2998 1.8 µM | MDA-MB-231 1.67 µM | ACHN 1.78 µM | IGROV-1 44.6 µM | PC-3 1.75 µM | OVCAR-5 27.2 µM | SNB-19 38.4 µM

O=C(N/N=C/c1ccccc1)c1cccc2nc3ccccc3nc12
inactive: Hs-578T 18.7 µM | U-251 > 100 µM | SF-539 > 100 µM | NCI-H226 38.7 µM | Malme-3M > 100 µM | NCI-H23 6.07 µM | A498 77.4 µM | RPMI-8226 > 100 µM | RXF 393 > 100 µM | MDA-MB-435 65 µM | 786-0 > 100 µM | HL-60 > 100 µM | KM12 54 µM | MDA-MB-231 > 100 µM | ACHN > 100 µM | IGROV-1 63.5 µM | PC-3 > 100 µM | OVCAR-5 > 100 µM | SNB-19 > 73.1 µM

CC(/C=N\NC(=S)N1CCCCC1)=N/NC(=S)N1CCCCC1
inactive: Hs-578T 1.41 µM | SF-539 3.65 µM | Malme-3M 2.15 µM | NCI-H23 2.42 µM | A498 1.35 µM | RPMI-8226 2.32 µM | RXF 393 2.01 µM | MDA-MB-435 2.75 µM | 786-0 2.03 µM | HCC 2998 1.63 µM | MDA-MB-231 2.45 µM | OVCAR-5 2.69 µM | SNB-19 2.14 µM
active: U-251 0.815 µM | NCI-H226 1.09 µM | KM12 1.09 µM | ACHN 0.611 µM | IGROV-1 1.04 µM | PC-3 0.957 µM

N=C(N)NC(=N)Nc1c(F)c(F)c(F)c(F)c1F
inactive: Hs-578T 95.3 µM | U-251 > 100 µM | SF-539 > 100 µM | NCI-H226 > 100 µM | Malme-3M 69 µM | NCI-H23 87.1 µM | A498 > 100 µM | RPMI-8226 52.7 µM | RXF 393 > 100 µM | MDA-MB-435 > 100 µM | 786-0 > 100 µM | KM12 > 100 µM | MDA-MB-231 62.2 µM | ACHN > 100 µM | IGROV-1 > 100 µM | PC-3 97.9 µM | OVCAR-5 > 100 µM | SNB-19 > 100 µM

CC1(C)CC[C@]2(C(=O)O)CC[C@]3(C)C(=CC[C@@H]4[C@@]5(C)CC[C@H](OC6OC(C(=O)O)C(O)C(O)C6O)C(C)(C)[C@@H]5CC[C@]43C)[C@@H]2C1 (some centres not stated)
inactive: Hs-578T 21.5 µM | U-251 14.9 µM | NCI-H226 18.5 µM | Malme-3M 18.1 µM | NCI-H23 18.9 µM | A498 19.1 µM | RPMI-8226 19.8 µM | RXF 393 16.7 µM | MDA-MB-435 19.2 µM | 786-0 17.5 µM | HL-60 18.2 µM | KM12 16.5 µM | HCC 2998 18.8 µM | MDA-MB-231 18.2 µM | ACHN 16.1 µM | IGROV-1 20 µM | PC-3 18.2 µM | OVCAR-5 16.2 µM | SNB-19 22 µM
